Assay results as given in PubChem BioAssay (NCI).
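Compound exposure: 48 hours, 5 concentrations, 96-well plates. The concentration for 50% growth inhibition is given as GI50. TGI denotes the concentration required for complete inhibition of growth.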

Experiments:
Test in all cases: NCI-60 cell line screen, 48 h
[1] = tested on: K-562 leukemia
[2] = tested on: LOX IMVI melanoma
[3] = tested on: UACC-257 melanoma
[4] = tested on: RPMI-8226 leukemia
[5] = tested on: COLO 205 colon
[6] = tested on: HCT-15 colon
[7] = tested on: HS 578T breast
[8] = tested on: SF-268 CNS
[9] = tested on: HT29 colon
[10] = tested on: OVCAR-5 ovarian

Row | Compound | GI50 [1] [µM] | TGI [1] [µM] | GI50 [2] [µM] | TGI [2] [µM] | GI50 [3] [µM] | TGI [3] [µM] | GI50 [4] [µM] | TGI [4] [µM] | GI50 [5] [µM] | TGI [5] [µM] | GI50 [6] [µM] | TGI [6] [µM] | GI50 [7] [µM] | TGI [7] [µM] | GI50 [8] [µM] | TGI [8] [µM] | GI50 [9] [µM] | TGI [9] [µM] | GI50 [10] [µM] | TGI [10] [µM]
1 | CN1CCN(c2ccc(-c3cnc4c(-c5csc6ccccc56)cnn4c3)cc2)CC1 | 3.03 | > 15 | 2.65 | 5.4 | 13.8 | > 15 | 2.99 | 9.75 | 7.28 | > 15 | 3.65 | > 15 | 10.9 | > 15 | > 15 | > 15 | 1.19 | > 15 | > 15 | > 15
2 | COC(=O)[C@]12CC[C@@H](C)[C@H](C)[C@@H]1C1=CC[C@@H]3[C@@]4(C)C(C=O)=C[C@@](C)(COC(C)=O)[C@@H]4[C@H](O)C[C@@]3(C)[C@]1(C)CC2 | 3.57 | 9.77 | 1.57 | 2.91 | 2.02 | 4.8 | 1.4 | 4.55 | 2.14 | 4.96 | 1.54 | 3.06 | 2.67 | 9.43 | 2.65 | 9.14 | 1.92 | 3.97 | 2.03 | 5.6
3 | NC1=NC(c2ccccc2)N=C(Nc2ccccc2)N1 (stereo not drawn) | > 100 | > 100 | > 100 | > 100 | > 100 | > 100 | > 100 | > 100 | 97.9 | > 100 | > 100 | > 100 | 68.5 | > 100 | 55.1 | > 100 | > 100 | > 100 | > 100 | > 100
4 | Nc1ccn([C@H]2C[C@@H](O)[C@@H](CO)S2)c(=O)n1 | > 100 | > 100 | > 100 | > 100 | > 100 | > 100 | > 100 | > 100 | > 89.8 | > 100 | 11.8 | > 100 | > 100 | > 100 | > 100 | > 100 | > 100 | > 100 | > 100 | > 100
5 | NCCNCC(O)CO (stereo not drawn) |  | > 100 |  | > 100 |  | > 100 |  | > 100 |  | > 100 |  | > 100 |  | > 100 |  | > 100 |  | > 100 |  | > 100
6 | CCCCn1c2c(c3ccccc3c1=O)C(=O)c1ccccc1-2 |  | > 100 |  | > 100 |  | > 100 |  | > 100 |  | > 100 |  | > 100 |  | > 100 |  | > 100 |  | > 100 |  | > 100
7 | Nc1c(C(=O)c2cccc(OCCN3CCOCC3)c2)cnn1-c1ccc(F)cc1 | > 25 | > 25 | > 25 | > 25 | > 25 | > 25 | > 25 | > 25 | > 25 | > 25 | > 25 | > 25 | > 25 | > 25 | > 25 | > 25 | > 25 | > 25 | > 25 | > 25
8 | C=C1C(=O)O[C@H]2[C@H]1CC/C(COC(=O)C(=O)c1c[nH]c3ccc(OC)cc13)=C\CC[C@@]1(C)O[C@@H]21 | > 100 | > 100 | 1.49 | 2.35 | 6.53 | 12.1 | 2.21 | 10.5 |  | > 20.6 | 3.77 | 7.82 | 10.1 | 40.2 | 6.75 | 13 | 2.65 | 6.35 | 7.11 | 14.1
9 | O=C1c2ccccc2S(=O)(=O)N1CSC(=S)N1CCCC1 | 4.02 | > 100 | > 100 | > 100 | > 100 | > 100 |  | > 36 | > 100 | > 100 | > 100 | > 100 | > 100 | > 100 | > 100 | > 100 | > 100 | > 100 | > 100 | > 100
10 | COc1cc2c3c(n(CCCN)c(=O)c2cc1OC)-c1ccc(F)cc1C3=O | 1.24 | 5.28 | 0.955 | 4.68 | 13.9 | 31 | 0.605 | 2.71 | 1.79 | 5.4 | 2.24 | 6.89 | 6.49 | 13.6 | 3.08 | 20.3 | 1.03 | 3.18 | 10.4 | 22.7
11 | COC(=O)c1ccccc1NC(=O)C(=O)CC(=O)c1ccccc1NC1=CC(=O)C(=O)c2ccccc21 |  | > 100 |  | 4.76 |  | 14.8 |  | 35.1 |  | 53.1 |  | 34.1 |  | 37.2 |  | 30.3 |  | > 74.9 |  | 57.7
